Measurements from ChEMBL document CHEMBL1201862, “PubChem BioAssay data set” (2004).
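Dose response: 5 concentrations. Exposure: 48 h. Format: 96-well plates. Endpoint: linear interpolation; highest concentration if not reached. The concentration for 50% growth inhibition is given as GI50.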 Calls of active or inactive are those of the source. Rule as the data show it: active = GI50 up to about 1.1 µM and inactive = higher.

Experiments:
Assay in all cases: NCI anticancer screen, dose series, 48 h
[1] = tested on: SK-MEL-28
[2] = tested on: U-251
[3] = tested on: NCI-H522
[4] = tested on: HOP-92
[5] = tested on: A498
[6] = tested on: MOLT-4
[7] = tested on: SN12C
[8] = tested on: SK-MEL-2
[9] = tested on: HCT-15
[10] = tested on: SK-OV-3
[11] = tested on: EKVX
[12] = tested on: 786-0
[13] = tested on: UACC-62
[14] = tested on: UACC-257
[15] = tested on: OVCAR-5
[16] = tested on: MDA-MB-435
[17] = tested on: DU-145
[18] = tested on: Hs-578T
[19] = tested on: BT-549

| Compound | GI50 [1] | GI50 [2] | GI50 [3] | GI50 [4] | GI50 [5] | GI50 [6] | GI50 [7] | GI50 [8] | GI50 [9] [µM] | GI50 [10] | GI50 [11] | GI50 [12] | GI50 [13] | GI50 [14] | GI50 [15] | GI50 [16] | GI50 [17] | GI50 [18] | GI50 [19] |
| --- | --- | --- | --- | --- | --- | --- | --- | --- | --- | --- | --- | --- | --- | --- | --- | --- | --- | --- | --- |
| C[C@@H](NS(=O)(=O)c1ccc(NC(=O)c2ccccc2)cc1)C(=O)O | > 100 µM (inactive) | > 100 µM (inactive) | > 100 µM (inactive) | > 100 µM (inactive) | > 100 µM (inactive) | > 100 µM (inactive) | > 100 µM (inactive) | > 100 µM (inactive) | > 100 | > 100 µM (inactive) | > 100 µM (inactive) | > 100 µM (inactive) | > 100 µM (inactive) | > 100 µM (inactive) | > 100 µM (inactive) | – | – | – | – |
| c1csc(-c2ccc(-c3ccc(-c4ccc(-c5cccs5)s4)s3)s2)c1 | – | > 100 µM (inactive) | – | > 100 µM (inactive) | > 100 µM (inactive) | 31.6 µM (inactive) | > 100 µM (inactive) | – | > 100 | > 100 µM (inactive) | > 100 µM (inactive) | > 100 µM (inactive) | > 100 µM (inactive) | > 100 µM (inactive) | > 100 µM (inactive) | > 100 µM (inactive) | > 100 µM (inactive) | > 100 µM (inactive) | – |
| Cc1cc(S(=O)(=O)[N-]/C(=N/S(=O)(=O)c2cc(Cl)sc2Cl)[n+]2ccc(N(C)C)cc2)c(S)cc1Cl | 84.9 µM (inactive) | 45.2 µM (inactive) | 25.4 µM (inactive) | – | 26.7 µM (inactive) | 84.3 µM (inactive) | – | 50.4 µM (inactive) | 42.7 | 42.9 µM (inactive) | > 100 µM (inactive) | 68.2 µM (inactive) | – | > 100 µM (inactive) | 49.3 µM (inactive) | 62.1 µM (inactive) | 39.4 µM (inactive) | 40.4 µM (inactive) | – |
| C[C@]12CC[C@@H]3c4cc(I)c(O)cc4CC[C@H]3[C@@H]1CC[C@@H]2O | 7.96 µM (inactive) | 4.48 µM (inactive) | 3.72 µM (inactive) | 10.3 µM (inactive) | 8.43 µM (inactive) | 5.42 µM (inactive) | – | 3.02 µM (inactive) | 2.48 | 4.25 µM (inactive) | 2.65 µM (inactive) | 5.06 µM (inactive) | – | 8.61 µM (inactive) | 12.7 µM (inactive) | – | – | 2.32 µM (inactive) | 11.6 µM (inactive) |
| CC(C)(C)[Si](C)(C)OCC1OC(n2cnc3c(=O)[nH]c(N)nc32)C(O[Si](C)(C)C(C)(C)C)C1O[Si](C)(C)C(C)(C)C (configuration not stated) | 1.93 µM (inactive) | 1.78 µM (inactive) | 1.68 µM (inactive) | 2.61 µM (inactive) | 2.39 µM (inactive) | 1.24 µM (inactive) | 2.2 µM (inactive) | 0.176 µM (active) | > 46.9 | 1.95 µM (inactive) | 19.5 µM (inactive) | 1.67 µM (inactive) | 1.22 µM (inactive) | 1.78 µM (inactive) | 2.33 µM (inactive) | 1.47 µM (inactive) | 2.33 µM (inactive) | 2.46 µM (inactive) | – |
| O=C(Nc1ccc(N=C=S)cc1Cl)c1cc(Br)cc(Br)c1O | 30.4 µM (inactive) | 22.2 µM (inactive) | 31.3 µM (inactive) | 14.1 µM (inactive) | – | 24.2 µM (inactive) | < 0.01 µM (active) | 31.6 µM (inactive) | 16.4 | 42.9 µM (inactive) | – | 26.3 µM (inactive) | 18.9 µM (inactive) | 21.4 µM (inactive) | 23.7 µM (inactive) | 28.1 µM (inactive) | 15.9 µM (inactive) | 25.6 µM (inactive) | – |
| O=C(O)/C=C/c1ccc(Oc2ccccc2C(=O)O)o1 | > 10 µM (inactive) | > 10 µM (inactive) | > 10 µM (inactive) | > 10 µM (inactive) | – | > 10 µM (inactive) | > 10 µM (inactive) | – | > 10 | > 10 µM (inactive) | – | > 10 µM (inactive) | > 10 µM (inactive) | > 10 µM (inactive) | – | > 10 µM (inactive) | > 10 µM (inactive) | > 10 µM (inactive) | > 10 µM (inactive) |
| COc1cc(C2c3cc4c(cc3C(=O)C3CCC(=O)N32)OCO4)cc(OC)c1O (configuration not stated) | > 50 µM (inactive) | > 50 µM (inactive) | – | > 50 µM (inactive) | > 50 µM (inactive) | > 50 µM (inactive) | > 50 µM (inactive) | > 50 µM (inactive) | > 50 | > 50 µM (inactive) | > 50 µM (inactive) | > 50 µM (inactive) | > 50 µM (inactive) | > 50 µM (inactive) | > 50 µM (inactive) | > 50 µM (inactive) | > 50 µM (inactive) | – | > 50 µM (inactive) |
| CC(=O)NNc1nc(C)c(C(/C=C/c2ccc(Cl)cc2)=N\N=C(N)N)s1 | > 100 µM (inactive) | > 100 µM (inactive) | > 100 µM (inactive) | > 100 µM (inactive) | – | > 100 µM (inactive) | > 100 µM (inactive) | – | > 100 | > 100 µM (inactive) | – | > 100 µM (inactive) | > 100 µM (inactive) | > 100 µM (inactive) | > 100 µM (inactive) | – | – | – | – |
| O=C1CSc2nnc(CCCCCCCCc3nnc4n3NC(=O)CS4)n2N1 | > 100 µM (inactive) | 35.4 µM (inactive) | 26.7 µM (inactive) | 82 µM (inactive) | > 100 µM (inactive) | 31.3 µM (inactive) | > 100 µM (inactive) | > 100 µM (inactive) | 37.2 | > 100 µM (inactive) | > 100 µM (inactive) | 32.6 µM (inactive) | > 100 µM (inactive) | 42.6 µM (inactive) | > 100 µM (inactive) | > 100 µM (inactive) | > 100 µM (inactive) | – | 56.8 µM (inactive) |
| CC(C)C(=O)/C=C/S/C=C/C(=O)C(C)C | 4.28 µM (inactive) | 18.6 µM (inactive) | 1.19 µM (inactive) | – | – | – | 14.2 µM (inactive) | 23.4 µM (inactive) | 3.2 | 41.8 µM (inactive) | 5 µM (inactive) | 2.53 µM (inactive) | 9.46 µM (inactive) | 2.72 µM (inactive) | 5.27 µM (inactive) | 10.4 µM (inactive) | 13.4 µM (inactive) | 21.6 µM (inactive) | – |
| CC(=O)NC1=C(C)C(=O)c2c(nc3n2CCC3OC(=O)CCl)C1=O (configuration not stated) | 17.2 µM (inactive) | 3.3 µM (inactive) | 3.05 µM (inactive) | 2.33 µM (inactive) | 12.6 µM (inactive) | 1.69 µM (inactive) | 11.7 µM (inactive) | 3 µM (inactive) | – | 16.1 µM (inactive) | 8.57 µM (inactive) | 9.48 µM (inactive) | 2.81 µM (inactive) | 12.7 µM (inactive) | 12.9 µM (inactive) | – | – | – | – |
| O=C1/C(=C/c2ccc([N+](=O)[O-])cc2)Oc2cc(O)ccc21 | 41 µM (inactive) | 28.1 µM (inactive) | 24.8 µM (inactive) | – | – | 14.6 µM (inactive) | 26.6 µM (inactive) | – | 25.1 | 25.1 µM (inactive) | 33.7 µM (inactive) | 22.2 µM (inactive) | 33 µM (inactive) | 37.7 µM (inactive) | – | 30.5 µM (inactive) | 33.7 µM (inactive) | 17.1 µM (inactive) | 25.9 µM (inactive) |
| CC1(C)O[C@@H](CP(c2ccc3ccccc3c2)c2ccc3ccccc3c2)[C@H](CP(c2ccc3ccccc3c2)c2ccc3ccccc3c2)O1 | > 100 µM (inactive) | > 100 µM (inactive) | 25.5 µM (inactive) | – | – | 78.9 µM (inactive) | > 100 µM (inactive) | > 100 µM (inactive) | > 100 | > 100 µM (inactive) | > 100 µM (inactive) | > 100 µM (inactive) | > 100 µM (inactive) | > 100 µM (inactive) | > 100 µM (inactive) | > 100 µM (inactive) | > 100 µM (inactive) | – | > 100 µM (inactive) |
| CCOC(=O)C1(C(=O)OCC)C[C@@H](C)[C@@H](O)C1 | > 100 µM (inactive) | > 100 µM (inactive) | > 100 µM (inactive) | > 100 µM (inactive) | > 100 µM (inactive) | > 100 µM (inactive) | > 100 µM (inactive) | > 100 µM (inactive) | > 100 | > 100 µM (inactive) | > 100 µM (inactive) | > 100 µM (inactive) | > 100 µM (inactive) | > 100 µM (inactive) | > 100 µM (inactive) | > 100 µM (inactive) | > 100 µM (inactive) | > 100 µM (inactive) | – |
| c1ccc(Nc2nnc(CCCCCCCCc3nnc(Nc4ccccc4)o3)o2)cc1 | > 100 µM (inactive) | > 100 µM (inactive) | > 100 µM (inactive) | – | > 100 µM (inactive) | > 100 µM (inactive) | > 100 µM (inactive) | > 100 µM (inactive) | > 100 | > 100 µM (inactive) | > 100 µM (inactive) | > 100 µM (inactive) | – | > 100 µM (inactive) | > 100 µM (inactive) | > 100 µM (inactive) | > 100 µM (inactive) | – | > 100 µM (inactive) |
| CC(C)(C)c1cc(C(C)(C)C)c(SSc2c(C(C)(C)C)cc(C(C)(C)C)c(O)c2O)c(O)c1O | 16.3 µM (inactive) | 10.5 µM (inactive) | 3.92 µM (inactive) | 17.7 µM (inactive) | 14 µM (inactive) | 2.67 µM (inactive) | 10.9 µM (inactive) | 14.4 µM (inactive) | 6.19 | – | 16.4 µM (inactive) | 6.4 µM (inactive) | 5.7 µM (inactive) | 9.95 µM (inactive) | 15.8 µM (inactive) | 4.3 µM (inactive) | – | 10.5 µM (inactive) | 13.8 µM (inactive) |
